Source: patent US20220054432A1, “COMPOSITION FOR INCREASING RETENTION OF CAROTENOID IN BLOOD” (ENEOS Corporation, priority 2018, published 2022)
Like-named read-outs stand apart in the source and are kept apart here. Blank lines part the entries; values can stand above or below the compound they belong to.

Assay: Transfer into each organ: carotenoid concentration in organs of cynomolgus monkeys (Test Example 3)
Format: in vivo
Settings: cynomolgus monkey
Experimental: As experimental animals, cynomolgus monkeys were used. Two cynomolgus monkeys were used, and an adonixanthin dosing solution was administered to one monkey (adonixanthin-administering monkey), while an astaxanthin dosing solution was administered to the other monkey (astaxanthin-administering monkey). As the dosing solutions, the dosing solutions obtained in Preparation Example 2 were used, and the dosing solutions at a dose such that the dose of adonixanthin or astaxanthin was 50 mg/kg body weight were administered once daily for 10 days (the day of initiation of administration of the dosing solutions was defined as day 1). As the administration method, a disposable catheter was inserted from the nasal cavity into the stomach, and the dosing solutions were injected into the stomach using a syringe. When the dosing solutions were collected into a syringe, the dosing solutions were collected while being stirred with a stirrer. The dose in each administration was calculated based on the latest body weight at each administration time point (the body weight was measured on the day of initiation of acclimation, the day of end of acclimation, the day of initiation of administration, and before administration on day 8 of administration using an electric balance (HP-40K or GP-40K, both of which are manufactured by A&D Company, Limited)). The administration time was 8:30 to 13:30.
During the administration period of the dosing solution, each cynomolgus monkey was fed about 108 g (about 12 g×9 pieces) of a pellet once daily at 14:00 to 16:00, and the feed remained by the feeding on the next day (for the day of administration, before administration) was recovered. Each cynomolgus monkey was fed tap water at libitum, and maintained on a 12-h light/dark cycle, at […], with a relative humidity of 50±20%.
After blood collection after the last administration of the dosing solutions, an aqueous solution of pentobarbital sodium (manufactured by Tokyo Chemical Industry Co., Ltd.) (64.8 mg/mL) was administered into the cephalic vein at a volume of 0.4 mL/kg body weight to perform anesthesia. After the body weight was measured, each cynomolgus monkey was euthanized by exsanguination, and the brain (cerebral cortex, cerebral medulla, cerebellum, midbrain, striatum putamen, striatum caudate nucleus, hippocampus, medulla oblongata, diencephalon), the heart, the spleen, the liver, the kidneys (right and left), and the retina were collected. Each organ thus collected was stored in a deep freezer (−70° C. or lower).
Each of the concentration of adonixanthin in each organ collected from the adonixanthin-administering monkey (concentration relative to the weight of each organ) and the concentration of astaxanthin in each organ collected from the astaxanthin-administering monkey (concentration relative to the weight of each organ) was measured. Specifically, each organ was homogenized, and extraction was repeated with acetone until no color occurred. Then, filtration through a filter was performed to evaporate acetone, and diethyl ether:hexane (2:8, v/v) was added to the solution to extract a carotenoid. Furthermore, evaporation to dryness was performed, and the residue was dissolved in acetone:hexane (2:8, v/v) and subjected to HPLC. As the HPLC device, a Hitachi L-6000 intelligent pump and an L-4250 UV-VIS detector were used. The measurement wavelength was 450 nm, and a column of 5 μm Cosmosil 5SL-II (inner diameter of 250×4.6 mm) (manufactured by Nacalai Tesque, Inc.) was used. As the mobile phase, acetone:hexane (2:8, v/v) was used, and measurement was performed at a flow rate of 1.0 mL/min.
Each of the concentration of adonixanthin in each organ collected from the adonixanthin-administering monkey and the concentration of astaxanthin in each organ collected from the astaxanthin-administering monkey is shown in Table 2.

concentration at 10 days (in vivo, 50 mg/kg, Concentration in organ: Brain, Cerebellum): 14.4 ng/g | concentration at 10 days (in vivo, 50 mg/kg, Concentration in organ: Brain, Cerebral cortex): 4.8 ng/g | concentration at 10 days (in vivo, 50 mg/kg, Concentration in organ: Brain, Cerebral medulla): 8.3 ng/g | concentration at 10 days (in vivo, 50 mg/kg, Concentration in organ: Brain, Diencephalon): 5.2 ng/g | concentration at 10 days (in vivo, 50 mg/kg, Concentration in organ: Brain, Hippocampus): 7.1 ng/g | concentration at 10 days (in vivo, 50 mg/kg, Concentration in organ: Brain, Medulla oblongata): 8.3 ng/g | concentration at 10 days (in vivo, 50 mg/kg, Concentration in organ: Brain, Midbrain): 2.9 ng/g | concentration at 10 days (in vivo, 50 mg/kg, Concentration in organ: Brain, Striatum Caudate nucleus): 10.2 ng/g | concentration at 10 days (in vivo, 50 mg/kg, Concentration in organ: Brain, Striatum Putamen): 5 ng/g | concentration at 10 days (in vivo, 50 mg/kg, Concentration in organ: Heart): 15.7 ng/g | concentration at 10 days (in vivo, 50 mg/kg, Concentration in organ: Kidney (left)): 228 ng/g | concentration at 10 days (in vivo, 50 mg/kg, Concentration in organ: Kidney (right)): 231 ng/g | concentration at 10 days (in vivo, 50 mg/kg, Concentration in organ: Liver): 37.8 ng/g | concentration at 10 days (in vivo, 50 mg/kg, Concentration in organ: Retina): 24.4 ng/g | concentration at 10 days (in vivo, 50 mg/kg, Concentration in organ: Spleen): 88.8 ng/g
SMILES: CC1=C(/C=C/C(C)=C/C=C/C(C)=C/C=C/C=C(C)/C=C/C=C(C)/C=C/C2=C(C)C(=O)C(O)CC2(C)C)C(C)(C)CC(O)C1=O (stereo not drawn) [astaxanthin, 3,3′-dihydroxy-β,β-carotene-4,4′-dione]
Transfer into and retention in each organ (summary of Table 2) (in vivo, 50 mg/kg): exist in each organ at a high concentration

concentration at 10 days (brain, cerebellum, oral, 50 mg/kg, 50 mg/kg intragastric once daily for 10 days, after last administration, read-out: Concentration in organ: Brain, Cerebellum): 57.5 ng/g | concentration at 10 days (brain, cerebral cortex, oral, 50 mg/kg, 50 mg/kg intragastric once daily for 10 days, after last administration, read-out: Concentration in organ: Brain, Cerebral cortex): 48.9 ng/g | concentration at 10 days (brain, cerebral medulla, oral, 50 mg/kg, 50 mg/kg intragastric once daily for 10 days, after last administration, read-out: Concentration in organ: Brain, Cerebral medulla): 53.2 ng/g | concentration at 10 days (brain, diencephalon, oral, 50 mg/kg, 50 mg/kg intragastric once daily for 10 days, after last administration, read-out: Concentration in organ: Brain, Diencephalon): 77.1 ng/g | concentration at 10 days (brain, hippocampus, oral, 50 mg/kg, 50 mg/kg intragastric once daily for 10 days, after last administration, read-out: Concentration in organ: Brain, Hippocampus): 64 ng/g | concentration at 10 days (brain, medulla oblongata, oral, 50 mg/kg, 50 mg/kg intragastric once daily for 10 days, after last administration, read-out: Concentration in organ: Brain, Medulla oblongata): 27.6 ng/g | concentration at 10 days (brain, midbrain, oral, 50 mg/kg, 50 mg/kg intragastric once daily for 10 days, after last administration, read-out: Concentration in organ: Brain, Midbrain): 7.4 ng/g | concentration at 10 days (brain, striatum caudate nucleus, oral, 50 mg/kg, 50 mg/kg intragastric once daily for 10 days, after last administration, read-out: Concentration in organ: Brain, Striatum Caudate nucleus): 59.8 ng/g | concentration at 10 days (brain, striatum putamen, oral, 50 mg/kg, 50 mg/kg intragastric once daily for 10 days, after last administration, read-out: Concentration in organ: Brain, Striatum Putamen): 42.1 ng/g | concentration at 10 days (heart, oral, 50 mg/kg, 50 mg/kg intragastric once daily for 10 days, after last administration, read-out: Concentration in organ: Heart): 305 ng/g | concentration at 10 days (kidney (left), oral, 50 mg/kg, 50 mg/kg intragastric once daily for 10 days, after last administration, read-out: Concentration in organ: Kidney (left)): 1600 ng/g | concentration at 10 days (kidney (right), oral, 50 mg/kg, 50 mg/kg intragastric once daily for 10 days, after last administration, read-out: Concentration in organ: Kidney (right)): 1530 ng/g | concentration at 10 days (liver, oral, 50 mg/kg, 50 mg/kg intragastric once daily for 10 days, after last administration, read-out: Concentration in organ: Liver): 1120 ng/g | concentration at 10 days (retina, oral, 50 mg/kg, 50 mg/kg intragastric once daily for 10 days, after last administration, read-out: Concentration in organ: Retina): 689 ng/g | concentration at 10 days (spleen, oral, 50 mg/kg, 50 mg/kg intragastric once daily for 10 days, after last administration, read-out: Concentration in organ: Spleen): 5280 ng/g
SMILES: CC1=C(/C=C/C(C)=C/C=C/C(C)=C/C=C/C=C(C)/C=C/C=C(C)/C=C/C2=C(C)C(=O)C(O)CC2(C)C)C(C)(C)CC(O)C1 (stereo not drawn) [adonixanthin, 3,3′-dihydroxy-β,β-caroten-4-one]
Transfer into and retention in each organ (summary of Table 2) (50 mg/kg intragastric once daily for 10 days): especially likely to be transferred into each organ and retained therein
